Data from ChEMBL document CHEMBL1148695, “Synthesis and biological activity of nociceptin/orphanin FQ analogues substituted in position 7 or 11 with Calpha,alpha-dialkylated amino acids” (Bioorg Med Chem, 2007).

Tests used:
Nociceptin receptor = Nociceptin receptor (Mus musculus, UniProt P35377); assay: (§1) Agonist activity at NOP receptor in Swiss mouse vas deferens assessed as effect on electrically stimulated contractions; format: functional, tissue-based
[1] = biological target: Nociceptin receptor (Mus musculus) (UniProt P35377); assay: as §1; format: functional, tissue-based
Nociceptin receptor (Mus musculus), sequence (P35377 whole entry): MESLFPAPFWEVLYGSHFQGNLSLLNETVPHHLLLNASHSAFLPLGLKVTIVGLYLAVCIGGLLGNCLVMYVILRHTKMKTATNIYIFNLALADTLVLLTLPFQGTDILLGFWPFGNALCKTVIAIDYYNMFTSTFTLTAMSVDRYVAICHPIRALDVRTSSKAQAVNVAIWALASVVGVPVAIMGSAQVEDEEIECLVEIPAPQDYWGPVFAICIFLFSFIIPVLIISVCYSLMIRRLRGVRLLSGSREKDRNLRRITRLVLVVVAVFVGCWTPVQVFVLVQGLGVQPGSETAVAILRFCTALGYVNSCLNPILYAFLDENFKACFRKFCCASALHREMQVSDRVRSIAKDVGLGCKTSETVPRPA

Nociceptin receptor, sequence (P35377 whole entry): as above

Compound	EC50 (Nociceptin receptor)	Emax [1]
CCCC(CCC)(NC(=O)[C@H](CO)NC(=O)[C@H](CCCCN)NC(=O)[C@H](CCCNC(=N)N)NC(=O)[C@H](C)NC(=O)CNC(=O)[C@@H](NC(=O)[C@H](Cc1ccccc1)NC(=O)CNC(=O)CNC(=O)[C@@H](N)Cc1ccccc1)[C@@H](C)O)C(=O)N[C@@H](CCCNC(=N)N)C(=O)N[C@@H](CCCCN)C(=O)N[C@@H](CC(C)C)C(=O)N[C@@H](C)C(=O)N[C@@H](CC(N)=O)C(=O)N[C@@H](CCC(N)=O)C(N)=O	29.5 nM	86%
CC(C)C[C@H](NC(=O)[C@H](CCCCN)NC(=O)[C@H](CCCNC(=N)N)NC(=O)C1(NC(=O)[C@H](CO)NC(=O)[C@H](CCCCN)NC(=O)[C@H](CCCNC(=N)N)NC(=O)[C@H](C)NC(=O)CNC(=O)[C@@H](NC(=O)[C@H](Cc2ccccc2)NC(=O)CNC(=O)CNC(=O)[C@@H](N)Cc2ccccc2)[C@@H](C)O)CCCCC1)C(=O)N[C@@H](C)C(=O)N[C@@H](CC(N)=O)C(=O)N[C@@H](CCC(N)=O)C(N)=O	16.2 nM	89%
CC(C)C[C@H](NC(=O)[C@H](CCCCN)NC(=O)[C@H](CCCNC(=N)N)NC(=O)C(C)(C)NC(=O)[C@H](CO)NC(=O)[C@H](CCCCN)NC(=O)[C@H](CCCNC(=N)N)NC(=O)[C@H](C)NC(=O)CNC(=O)[C@@H](NC(=O)[C@H](Cc1ccccc1)NC(=O)CNC(=O)CNC(=O)[C@@H](N)Cc1ccccc1)[C@@H](C)O)C(=O)N[C@@H](C)C(=O)N[C@@H](CC(N)=O)C(=O)N[C@@H](CCC(N)=O)C(N)=O	8.91 nM	91%
CCC(CC)(NC(=O)[C@H](CO)NC(=O)[C@H](CCCCN)NC(=O)[C@H](CCCNC(=N)N)NC(=O)[C@H](C)NC(=O)CNC(=O)[C@@H](NC(=O)[C@H](Cc1ccccc1)NC(=O)CNC(=O)CNC(=O)[C@@H](N)Cc1ccccc1)[C@@H](C)O)C(=O)N[C@@H](CCCNC(=N)N)C(=O)N[C@@H](CCCCN)C(=O)N[C@@H](CC(C)C)C(=O)N[C@@H](C)C(=O)N[C@@H](CC(N)=O)C(=O)N[C@@H](CCC(N)=O)C(N)=O	17.8 nM	87%
CCC(CC)(NC(=O)CNC(=O)[C@@H](NC(=O)[C@H](Cc1ccccc1)NC(=O)CNC(=O)CNC(=O)[C@@H](N)Cc1ccccc1)[C@@H](C)O)C(=O)N[C@@H](CCCNC(=N)N)C(=O)N[C@@H](CCCCN)C(=O)N[C@@H](CO)C(=O)N[C@@H](C)C(=O)N[C@@H](CCCNC(=N)N)C(=O)N[C@@H](CCCCN)C(=O)N[C@@H](CC(C)C)C(=O)N[C@@H](C)C(=O)N[C@@H](CC(N)=O)C(=O)N[C@@H](CCC(N)=O)C(N)=O	12.3 nM	89%
CC(C)C[C@H](NC(=O)[C@H](CCCCN)NC(=O)[C@H](CCCNC(=N)N)NC(=O)[C@H](C)NC(=O)[C@H](CO)NC(=O)[C@H](CCCCN)NC(=O)[C@H](CCCNC(=N)N)NC(=O)C(C)(C)NC(=O)CNC(=O)[C@@H](NC(=O)[C@H](Cc1ccccc1)NC(=O)CNC(=O)CNC(=O)[C@@H](N)Cc1ccccc1)[C@@H](C)O)C(=O)N[C@@H](C)C(=O)N[C@@H](CC(N)=O)C(=O)N[C@@H](CCC(N)=O)C(N)=O	4.47 nM	96%
CC(C)C[C@H](NC(=O)[C@H](CCCCN)NC(=O)[C@H](CCCNC(=N)N)NC(=O)C1(NC(=O)[C@H](CO)NC(=O)[C@H](CCCCN)NC(=O)[C@H](CCCNC(=N)N)NC(=O)[C@H](C)NC(=O)CNC(=O)[C@@H](NC(=O)[C@H](Cc2ccccc2)NC(=O)CNC(=O)CNC(=O)[C@@H](N)Cc2ccccc2)[C@@H](C)O)CCCC1)C(=O)N[C@@H](C)C(=O)N[C@@H](CC(N)=O)C(=O)N[C@@H](CCC(N)=O)C(N)=O	8.32 nM	89%
CC(C)C[C@H](NC(=O)[C@H](CCCCN)NC(=O)[C@H](CCCNC(=N)N)NC(=O)C1(NC(=O)[C@H](CO)NC(=O)[C@H](CCCCN)NC(=O)[C@H](CCCNC(=N)N)NC(=O)[C@H](C)NC(=O)CNC(=O)[C@@H](NC(=O)[C@H](Cc2ccccc2)NC(=O)CNC(=O)CNC(=O)[C@@H](N)Cc2ccccc2)[C@@H](C)O)CC1)C(=O)N[C@@H](C)C(=O)N[C@@H](CC(N)=O)C(=O)N[C@@H](CCC(N)=O)C(N)=O	16.6 nM	91%
